Results reported in ChEMBL document CHEMBL1795320, “Synthesis and antibacterial activity of novel 4″-O-benzimidazolyl clarithromycin derivatives” (2011).
Values after ≈ are worked out from the molar mass of the structure shown.

Key:
Type in all cases: functional
Streptococcus pneumoniae [1] = test: Antibacterial activity against erythromycin-resistant Streptococcus pneumoniae B1 expressing erm gene by broth microdilution method
Streptococcus pneumoniae [2] = test: Ratio of erythromycin MIC to compound MIC for erythromycin-resistant Streptococcus pneumoniae A22072 expressing mef gene
Streptococcus pneumoniae [3] = test: Ratio of clarithromycin MIC to compound MIC for erythromycin-resistant Streptococcus pneumoniae A22072 expressing mef gene
Streptococcus pneumoniae [4] = test: Antibacterial activity against erythromycin-susceptible Streptococcus pneumoniae ATCC 49619 by broth microdilution method
Streptococcus pneumoniae [5] = test: Antibacterial activity against erythromycin-resistant Streptococcus pneumoniae A22072 expressing mef gene by broth microdilution method
Streptococcus pneumoniae [6] = test: Antibacterial activity against erythromycin-resistant Streptococcus pneumoniae AB11 expressing erm and mef gene by broth microdilution method
Staphylococcus aureus = test: Antibacterial activity against erythromycin-susceptible Staphylococcus aureus ATCC 25923 by broth microdilution method
Streptococcus pneumoniae [7] = test: Ratio of azithromycin MIC to compound MIC for erythromycin-resistant Streptococcus pneumoniae B1 expressing erm gene
Streptococcus pneumoniae [8] = test: Ratio of erythromycin MIC to compound MIC for erythromycin-resistant Streptococcus pneumoniae B1 expressing erm gene
Streptococcus pneumoniae [9] = test: Ratio of clarithromycin MIC to compound MIC for erythromycin-resistant Streptococcus pneumoniae B1 expressing erm gene

SMILES	MIC (Streptococcus pneumoniae [1]) [µg/mL]	Ratio (Streptococcus pneumoniae [2])	Ratio (Streptococcus pneumoniae [3])	MIC (Streptococcus pneumoniae [4]) [µg/mL]	MIC (Streptococcus pneumoniae [5]) [µg/mL]	MIC (Streptococcus pneumoniae [6]) [µg/mL]	MIC (Staphylococcus aureus) [µg/mL]	Ratio (Streptococcus pneumoniae [7])	Ratio (Streptococcus pneumoniae [8])	Ratio (Streptococcus pneumoniae [9])
CC[C@H]1OC(=O)[C@H](C)[C@@H](O[C@H]2C[C@@](C)(OC)[C@@H](OC(=O)NNC(=O)c3ccc4[nH]c(-c5ccc([N+](=O)[O-])cc5)nc4c3)[C@H](C)O2)[C@H](C)[C@@H](O[C@@H]2O[C@H](C)C[C@H](N(C)C)[C@H]2O)[C@](C)(OC)C[C@@H](C)C(=O)[C@H](C)[C@@H](O)[C@]1(C)O	16 (≈ 14.9 µM)	267	133	0.25 (≈ 0.233 µM)	0.03 (≈ 0.028 µM)	16 (≈ 14.9 µM)	1 (≈ 0.934 µM)	–	–	–
CC[C@H]1OC(=O)[C@H](C)[C@@H](O[C@H]2C[C@@](C)(OC)[C@@H](OC(=O)NNC(=O)c3ccc4[nH]c(-c5cccc([N+](=O)[O-])c5)nc4c3)[C@H](C)O2)[C@H](C)[C@@H](O[C@@H]2O[C@H](C)C[C@H](N(C)C)[C@H]2O)[C@](C)(OC)C[C@@H](C)C(=O)[C@H](C)[C@@H](O)[C@]1(C)O	64 (≈ 59.7 µM)	–	–	0.25 (≈ 0.233 µM)	1 (≈ 0.934 µM)	128 (≈ 119 µM)	0.5 (≈ 0.467 µM)	–	–	–
CC[C@H]1OC(=O)[C@H](C)[C@@H](O[C@H]2C[C@@](C)(OC)[C@@H](OC(=O)NNC(=O)c3ccc4[nH]c(-c5ccc(C(F)(F)F)cc5)nc4c3)[C@H](C)O2)[C@H](C)[C@@H](O[C@@H]2O[C@H](C)C[C@H](N(C)C)[C@H]2O)[C@](C)(OC)C[C@@H](C)C(=O)[C@H](C)[C@@H](O)[C@]1(C)O	8 (≈ 7.31 µM)	–	–	0.25 (≈ 0.228 µM)	0.06 (≈ 0.0548 µM)	8 (≈ 7.31 µM)	0.5 (≈ 0.457 µM)	–	–	–
CC[C@H]1OC(=O)[C@H](C)[C@@H](O[C@H]2C[C@@](C)(OC)[C@@H](OC(=O)NNC(=O)c3ccc4[nH]c(-c5ccc(Br)cc5)nc4c3)[C@H](C)O2)[C@H](C)[C@@H](O[C@@H]2O[C@H](C)C[C@H](N(C)C)[C@H]2O)[C@](C)(OC)C[C@@H](C)C(=O)[C@H](C)[C@@H](O)[C@]1(C)O	16 (≈ 14.5 µM)	–	–	0.25 (≈ 0.226 µM)	0.06 (≈ 0.0543 µM)	16 (≈ 14.5 µM)	1 (≈ 0.905 µM)	–	–	–
CC[C@H]1OC(=O)[C@H](C)[C@@H](O[C@H]2C[C@@](C)(OC)[C@@H](OC(=O)NNC(=O)c3ccc4[nH]cnc4c3)[C@H](C)O2)[C@H](C)[C@@H](O[C@@H]2O[C@H](C)C[C@H](N(C)C)[C@H]2O)[C@](C)(OC)C[C@@H](C)C(=O)[C@H](C)[C@@H](O)[C@]1(C)O	32 (≈ 33.7 µM)	–	–	0.12 (≈ 0.126 µM)	1 (≈ 1.05 µM)	32 (≈ 33.7 µM)	0.5 (≈ 0.526 µM)	–	–	–
CC[C@H]1OC(=O)[C@H](C)[C@@H](O[C@H]2C[C@@](C)(OC)[C@@H](OC(=O)NNC(=O)c3ccc4[nH]c(C)nc4c3)[C@H](C)O2)[C@H](C)[C@@H](O[C@@H]2O[C@H](C)C[C@H](N(C)C)[C@H]2O)[C@](C)(OC)C[C@@H](C)C(=O)[C@H](C)[C@@H](O)[C@]1(C)O	8 (≈ 8.3 µM)	–	–	0.12 (≈ 0.124 µM)	1 (≈ 1.04 µM)	64 (≈ 66.4 µM)	0.5 (≈ 0.519 µM)	–	–	–
CC[C@H]1OC(=O)[C@H](C)[C@@H](O[C@H]2C[C@@](C)(OC)[C@@H](OC(=O)NNC(=O)c3ccc4[nH]c(C(F)(F)F)nc4c3)[C@H](C)O2)[C@H](C)[C@@H](O[C@@H]2O[C@H](C)C[C@H](N(C)C)[C@H]2O)[C@](C)(OC)C[C@@H](C)C(=O)[C@H](C)[C@@H](O)[C@]1(C)O	32 (≈ 31.4 µM)	–	–	0.12 (≈ 0.118 µM)	0.12 (≈ 0.118 µM)	64 (≈ 62.9 µM)	0.25 (≈ 0.246 µM)	–	–	–
CCc1nc2cc(C(=O)NNC(=O)O[C@H]3[C@H](C)O[C@@H](O[C@H]4[C@H](C)[C@@H](O[C@@H]5O[C@H](C)C[C@H](N(C)C)[C@H]5O)[C@](C)(OC)C[C@@H](C)C(=O)[C@H](C)[C@@H](O)[C@](C)(O)[C@@H](CC)OC(=O)[C@@H]4C)C[C@@]3(C)OC)ccc2[nH]1	32 (≈ 32.7 µM)	–	–	0.25 (≈ 0.256 µM)	0.12 (≈ 0.123 µM)	64 (≈ 65.4 µM)	0.5 (≈ 0.511 µM)	–	–	–
CCCc1nc2cc(C(=O)NNC(=O)O[C@H]3[C@H](C)O[C@@H](O[C@H]4[C@H](C)[C@@H](O[C@@H]5O[C@H](C)C[C@H](N(C)C)[C@H]5O)[C@](C)(OC)C[C@@H](C)C(=O)[C@H](C)[C@@H](O)[C@](C)(O)[C@@H](CC)OC(=O)[C@@H]4C)C[C@@]3(C)OC)ccc2[nH]1	64 (≈ 64.5 µM)	–	–	0.12 (≈ 0.121 µM)	0.12 (≈ 0.121 µM)	64 (≈ 64.5 µM)	0.25 (≈ 0.252 µM)	–	–	–
CC[C@H]1OC(=O)[C@H](C)[C@@H](O[C@H]2C[C@@](C)(OC)[C@@H](OC(=O)NNC(=O)c3ccc4[nH]c(C(C)C)nc4c3)[C@H](C)O2)[C@H](C)[C@@H](O[C@@H]2O[C@H](C)C[C@H](N(C)C)[C@H]2O)[C@](C)(OC)C[C@@H](C)C(=O)[C@H](C)[C@@H](O)[C@]1(C)O	16 (≈ 16.1 µM)	–	–	0.12 (≈ 0.121 µM)	0.12 (≈ 0.121 µM)	64 (≈ 64.5 µM)	0.12 (≈ 0.121 µM)	–	–	–
CC[C@H]1OC(=O)[C@H](C)[C@@H](O[C@H]2C[C@@](C)(OC)[C@@H](OC(=O)NNC(=O)c3ccc4[nH]c(-c5ccccc5)nc4c3)[C@H](C)O2)[C@H](C)[C@@H](O[C@@H]2O[C@H](C)C[C@H](N(C)C)[C@H]2O)[C@](C)(OC)C[C@@H](C)C(=O)[C@H](C)[C@@H](O)[C@]1(C)O	8 (≈ 7.8 µM)	267	133	0.03 (≈ 0.0292 µM)	0.03 (≈ 0.0292 µM)	16 (≈ 15.6 µM)	0.25 (≈ 0.244 µM)	–	–	–
CC[C@H]1OC(=O)[C@H](C)[C@@H](O[C@H]2C[C@@](C)(OC)[C@@H](OC(=O)NNC(=O)c3ccc4[nH]c(-c5ccc(C)cc5)nc4c3)[C@H](C)O2)[C@H](C)[C@@H](O[C@@H]2O[C@H](C)C[C@H](N(C)C)[C@H]2O)[C@](C)(OC)C[C@@H](C)C(=O)[C@H](C)[C@@H](O)[C@]1(C)O	2 (≈ 1.92 µM)	267	133	0.12 (≈ 0.115 µM)	0.03 (≈ 0.0288 µM)	16 (≈ 15.4 µM)	0.25 (≈ 0.24 µM)	64	64	64
CC[C@H]1OC(=O)[C@H](C)[C@@H](O[C@H]2C[C@@](C)(OC)[C@@H](OC(=O)NNC(=O)c3ccc4[nH]c(-c5cccc(OC)c5)nc4c3)[C@H](C)O2)[C@H](C)[C@@H](O[C@@H]2O[C@H](C)C[C@H](N(C)C)[C@H]2O)[C@](C)(OC)C[C@@H](C)C(=O)[C@H](C)[C@@H](O)[C@]1(C)O	16 (≈ 15.1 µM)	267	133	0.03 (≈ 0.0284 µM)	0.03 (≈ 0.0284 µM)	32 (≈ 30.3 µM)	0.12 (≈ 0.114 µM)	–	–	–
CC[C@H]1OC(=O)[C@H](C)[C@@H](O[C@H]2C[C@@](C)(OC)[C@@H](OC(=O)NNC(=O)c3ccc4[nH]c(-c5ccc(OC)cc5)nc4c3)[C@H](C)O2)[C@H](C)[C@@H](O[C@@H]2O[C@H](C)C[C@H](N(C)C)[C@H]2O)[C@](C)(OC)C[C@@H](C)C(=O)[C@H](C)[C@@H](O)[C@]1(C)O	4 (≈ 3.79 µM)	267	133	0.12 (≈ 0.114 µM)	0.03 (≈ 0.0284 µM)	16 (≈ 15.1 µM)	0.25 (≈ 0.237 µM)	–	–	–
CC[C@H]1OC(=O)[C@H](C)[C@@H](O[C@H]2C[C@@](C)(OC)[C@@H](OC(=O)NNC(=O)c3ccc4[nH]c(-c5ccccc5Cl)nc4c3)[C@H](C)O2)[C@H](C)[C@@H](O[C@@H]2O[C@H](C)C[C@H](N(C)C)[C@H]2O)[C@](C)(OC)C[C@@H](C)C(=O)[C@H](C)[C@@H](O)[C@]1(C)O	32 (≈ 30.2 µM)	267	133	0.03 (≈ 0.0283 µM)	0.03 (≈ 0.0283 µM)	32 (≈ 30.2 µM)	0.06 (≈ 0.0566 µM)	–	–	–
CC[C@H]1OC(=O)[C@H](C)[C@@H](O[C@H]2C[C@@](C)(OC)[C@@H](OC(=O)NNC(=O)c3ccc4[nH]c(-c5ccc(Cl)cc5)nc4c3)[C@H](C)O2)[C@H](C)[C@@H](O[C@@H]2O[C@H](C)C[C@H](N(C)C)[C@H]2O)[C@](C)(OC)C[C@@H](C)C(=O)[C@H](C)[C@@H](O)[C@]1(C)O	8 (≈ 7.54 µM)	267	133	0.03 (≈ 0.0283 µM)	0.03 (≈ 0.0283 µM)	16 (≈ 15.1 µM)	0.5 (≈ 0.471 µM)	–	–	–
CC[C@H]1OC(=O)[C@H](C)[C@@H](O[C@H]2C[C@@](C)(OC)[C@@H](OC(=O)NNC(=O)c3ccc4[nH]c(-c5cccc(Cl)c5O)nc4c3)[C@H](C)O2)[C@H](C)[C@@H](O[C@@H]2O[C@H](C)C[C@H](N(C)C)[C@H]2O)[C@](C)(OC)C[C@@H](C)C(=O)[C@H](C)[C@@H](O)[C@]1(C)O	16 (≈ 14.9 µM)	–	–	0.03 (≈ 0.0279 µM)	0.25 (≈ 0.232 µM)	32 (≈ 29.7 µM)	0.5 (≈ 0.464 µM)	–	–	–
CC[C@H]1OC(=O)[C@H](C)[C@@H](O[C@H]2C[C@@](C)(OC)[C@@H](O)[C@H](C)O2)[C@H](C)[C@@H](O[C@@H]2O[C@H](C)C[C@H](N(C)C)[C@H]2O)[C@](C)(O)C[C@@H](C)CN(C)[C@H](C)[C@@H](O)[C@]1(C)O [AZITHROMYCIN]	128 (≈ 171 µM)	–	–	0.12 (≈ 0.16 µM)	4 (≈ 5.34 µM)	256 (≈ 342 µM)	0.12 (≈ 0.16 µM)	–	–	–
CC[C@H]1OC(=O)[C@H](C)[C@@H](O[C@H]2C[C@@](C)(OC)[C@@H](O)[C@H](C)O2)[C@H](C)[C@@H](O[C@@H]2O[C@H](C)C[C@H](N(C)C)[C@H]2O)[C@](C)(OC)C[C@@H](C)C(=O)[C@H](C)[C@@H](O)[C@]1(C)O [CLARITHROMYCIN]	128 (≈ 171 µM)	–	–	0.12 (≈ 0.16 µM)	4 (≈ 5.35 µM)	128 (≈ 171 µM)	0.12 (≈ 0.16 µM)	–	–	–
CC[C@H]1OC(=O)[C@H](C)[C@@H](O[C@H]2C[C@@](C)(OC)[C@@H](O)[C@H](C)O2)[C@H](C)[C@@H](O[C@@H]2O[C@H](C)C[C@H](N(C)C)[C@H]2O)[C@](C)(O)C[C@@H](C)C(=O)[C@H](C)[C@@H](O)[C@]1(C)O [ERYTHROMYCIN]	128 (≈ 174 µM)	–	–	0.12 (≈ 0.164 µM)	8 (≈ 10.9 µM)	256 (≈ 349 µM)	0.12 (≈ 0.164 µM)	–	–	–
